# Patent US12274686B2, “Specialized pro-resolving mediators (SPMs) as melanocyte growth promoter and pro-survival factors and uses thereof” (THE UNIVERSITY OF BRITISH COLUMBIA, priority 2021, dated 2025)
# Tests used:
# [1] = system: vitiligo patches; assay: Topical treatment of vitiligo patches refractory to topical anti-inflammatory therapies (single subject); assay type: in vivo, human; settings: for change in the size of the white areas: mometasone fumarate 0.1% cream BID (abdominal macule), clobetasol 0.05% cream OD (two patches right hand), 12 months
# Description: Topical maresin 1 was tested on a person with a 5 year and 3 month history of developing two white patches on the dorsal right hand and one white macule on the right mid abdomen. […] There were no signs of inflammation such as redness, or presence of scales. There were no symptoms such as itchiness or pain. […] On examination, the subject appeared to be well. Complete skin examination was performed. The entire skin appeared to be normal aside from three lesions of depigmentation: (1) a 1.5×1.2 cm white patch on the mid right abdomen; (2) a 1.3×1.0 cm white patch on the dorsum of right third metacarpal head; and (3) a 1.0×0.8 cm sized white macule on the dorsum of right 4th metacarpal head.
# [2] = system: primary human epidermal melanocytes; assay: Melanocyte survival assay in vitro (growth factor supplement withdrawn), CellTiter-Blue viability; assay type: cell-based; settings: for ability to protect melanocytes: physiological distress
# Description: Human neonatal epidermal melanocytes (HEMn-DP) were purchased from ThermoFisher Scientific™ (C-202-5C). Melanocytes were cultured in full growth medium (Medium 254 supplemented with Human Melanocyte Growth Supplement, both purchased from ThermoFisher Scientific™. Cells were expanded and passaged 3 times before conducting the assay. 4×10^3 melanocytes per well were seeded into 96 well plate and allowed to recover for 4 hours before the treatment was added for each condition in 100 μl final volume. Cells were treated and kept in 37° C., 5% CO2 for 3 days. Viability assay was conducted using CellTiter-Blue Cell Viability Assay Kit™ (Promega™, G8080) and signal was measured using GlowMax™ plate reader (Promega™) after 4 hours at 37° C., 5% CO2. Merasin 1 (Cayman™) was diluted into 1 μg/ml using PBS and added to the culture medium at concentrations ranging from 0 to 1 μg/ml. For survival assays, the procedure was essentially the same as proliferation assay except that melanocytes were kept in M254 medium without human melanocyte growth supplement. The assays were conducted in triplicates.
# [3] = system: skin resident M2 macrophages; assay: Skin resident M1 (CD80+) / M2 (CD163+) macrophages by flow cytometry in B6 mice with or without maresin 1; assay type: in vivo, C57BL/J6 mice
# Description: For isolation of macrophages from murine skin: 1 cm×1 cm sized skin samples were cut into small pieces, placed in a solution of PBS containing 1 mg/ml dispase (Roche™) and incubated for 1 hour at 37° C. The samples were then transferred into RPMI containing 1 mg/ml Collagenase IV and 0.1 mg/ml DNAse (Sigma Aldrich™) and incubated for 90 minutes at 37° C. Single cell suspension was prepared by passing through 100 μm strainer. Cells were washed and stained in PBS without Ca^2+ and Mg^2+ supplemented with 1% heat-inactivated FCS. Cell surface staining panel included anti-mouse CD163-BV421™, CD80-Alexa fluor 647™, and CD11b-Percp Cy5.5™ (Biolegend™) for 30 minutes at 4° C. Cells were washed with PBS and analyzed with LSRII™ cell sorter (BD Biosciences™).
# Eight week old female C57BL/J6 mice were ordered from The Jackson Laboratory™, and fed a standard diet of Animal Care Facility of Vancouver Coastal Health Research institute (4 mice/cage). For induction of vitiligo, mice were immunized by intradermal injections (ID, starting at Day 0) at the left hock, and repeated at 2-week, using the method described by S. You et al. that efficiently induces melanocyte specific CD8+ T cell responses^(53). […] Immunization response score was recorded at 48 hours after the first immunization by evaluating the redness and swelling (0=none, 1=mild, 2=moderate, 3=severe). […]
# [4] = system: B6 mouse Vitiligo model; assay: B6 mouse model of vitiligo with TRP2 immunization; assay type: in vivo, C57BL/J6 mice
# From the text: ([…], Deming Regression). * p<0.05 (two tailed t test).
# Eight week old female C57BL/J6 mice were ordered from The Jackson Laboratory™, and fed a standard diet of Animal Care Facility of Vancouver Coastal Health Research institute (4 mice/cage). For induction of vitiligo, mice were immunized by intradermal injections (ID, starting at Day 0) at the left hock, and repeated at 2-week, using the method described by S. You et al. that efficiently induces melanocyte specific CD8+ T cell responses^(53). The immunogen consisted of TRP2-180 (50 μg) peptide mixed with LPS (5 μg) and CpG ODN 1826 (5 μg) in 50 μL of PBS solution per mouse per injection. Immunization response score was recorded at 48 hours after the first immunization by evaluating the redness and swelling (0=none, 1=mild, 2=moderate, 3=severe). For assessing macrophage M1 and M2 populations, the TRP-immunized and non-immunized mice were anaesthetized 48 hours after immunization for skin sampling at the immunization site and used for cell isolation as described above.
# For assessing the effects of maresin 1 treatment, C57BL/J6 mice were randomly assigned to the sham injection control group (200 μl saline IP, n=20) and the Maresin 1 injection group (800 ng in 200 μl saline IP, n=20). […] Mice were monitored 5 times per week and evaluated using a Depigmentation Area Scoring Template (0-5) (FIG. 5C). […]
# [5] = system: B6 mouse canities model; assay: B6 mouse model of canities (spontaneous hair greying) and aging-associated weight gain; assay type: in vivo, C57BL/J6 mice; settings: 800 ng maresin 1 IP three times a week
# From the text: To observe aging-associated spontaneous hair greying (canities), C57BL/J6 mice aged 8 weeks were purchased from JAX Labs™ and kept in standard conditions for 8 weeks. The fur color as well as overall appearance and behaviors were monitored daily by visual inspection and by photography. By 6-8 weeks, about 20-40% of the mice would develop spontaneous canities. At the end of observation, central venous blood was collected and used for ELISA analysis using maresin 1 ELISA kit (Caymen Chemicals™) following the manufacturers' recommended protocol with purified maresin 1 serving as the chemical standard.
# C57BL/J6 mice from The Jackson Laboratory™, 8 weeks of age were divided into two groups that received intraperitoneal injections of maresin 1 (800 ng in 100 μl saline) or saline alone three times a week for 6 weeks. […] At the end of the experiment, the mice were photographed and weighed.
# [6] = cultured human epidermal melanocytes
compound,measurement,setting,value
"C[C@H]1C[C@H]2[C@@H]3CCC4=CC(=O)C=C[C@]4(C)[C@@]3(F)[C@@H](O)C[C@]2(C)[C@@]1(O)C(=O)CCl [clobetasol, reference compound]",change in the size of the white areas,[1],did not notice any change
"CCCCC[C@H](O)/C=C/C=C\C=C\C=C\[C@@H](O)[C@@H](O)CCCC(=O)O [lipoxin A4, reference compound]",pro-survival effects on the melanocytes in vitro,"[2]; SPMs 0 to 300 ng/ml, cultured human epidermal melanocytes",significantly decreased melanocyte survival
same,ability to protect melanocytes,[2]; [6],accelerated melanocyte depletion
"CCCCC[C@@H](O)[C@H](O)/C=C/C=C/C=C\C=C\[C@@H](O)CCCC(=O)O [lipoxin B4, 5S,14R,15S-trihydroxy-6E,8Z,10E,12E-eicosatetraenoic acid]",ability to protect melanocytes,[2]; [6],show ability to protect melanocytes
"CC/C=C\C/C=C\C[C@H](O)\C=C/C=C/C=C/[C@H](O)C/C=C\CCC(=O)O [maresin 1, 7R, 14S-dihydroxy-4Z, 8E, 10E, 12Z, 16Z, 19Z-docosahexaenoic acid]",post-immunization M2/M1 ratio at the TRP2 immunization site,"[3]; maresin 1 800 ng/mouse IP pretreatment, skin 48 hours after TRP2 immunization, CD163+/CD80+ cells",restoring the post-immunization M2/M1 ratio to a level above the pre-immunization state
same,M2/M1 ratio in the skin of B6 mice,"[3]; maresin 1 treatment, increase from 0.44",5.34
same,vitiligo development (average depigmentation score at immunization site),[4]; maresin 1 800 ng/mouse IP three times per week for 8 weeks vs saline (sham),significant reduction of vitiligo development
same,"immunization response (peak score, erythema + edema)","[4]; maresin 1 800 ng/mouse IP, 48 hours after TRP2 immunization, vs saline",significantly reduced the immunization response
same,canities development,"[5]; saline control 15% by 15 weeks of age, p<0.0125 Log Rank",completely blocked
same,aging associated weight gain,"[5]; saline control 17.7%, p=0.0423",14.2%
same,ability to protect melanocytes,[2]; [6],show ability to protect melanocytes
same,melanocyte depletion (surviving melanocytes) after growth factor supplement withdrawal,"[2]; maresin 1 10 to 300 ng/ml, three days, p<0.01",significant reduction of melanocyte depletion
same,melanocyte depletion caused by growth factor withdrawal,"[2]; three days in culture, no growth factor supplement",markedly reducing melanocyte depletion
same,repigmentation,"[1]; 0.01% maresin 1 in ethanol twice daily, by the end of three months",significant repigmentation
same,"decrease of lesion area, third lesion","[1]; 0.01% maresin 1 in ethanol twice daily, three months, 1.0×0.8 cm macule right 4th metacarpal head",11.1%
same,"decrease of lesion area, second lesion","[1]; 0.01% maresin 1 in ethanol twice daily, three months, 1.3×1.0 cm patch right third metacarpal head",10.5%
same,"decrease of lesion area, first lesion","[1]; 0.01% maresin 1 in ethanol twice daily, three months, 1.5×1.2 cm patch mid right abdomen",13.6%
same,"adverse events such as irritation, itchiness or redness","[1]; 0.01% maresin 1 in ethanol, topical twice daily",did no notice any adverse events
same,decrease of the areas of the three depigmented lesions (overall),"[1]; ethanol solution containing 0.01% maresin 1 twice daily, three months",11.7%
"CC/C=C\C/C=C\C[C@H](O)[C@H](O)/C=C/C=C/C=C\C/C=C\CCC(=O)O [maresin 2, 13R,14S-dihydroxy-4Z,7Z,9E,11E,16Z,19Z-docosahexaenoic acid]",ability to protect melanocytes,[2]; [6],show ability to protect melanocytes
"CC/C=C\C[C@H](O)\C=C/C=C/C=C/[C@H](O)C/C=C\C/C=C\CCC(=O)O [protectin D1, 10R,17S-dihydroxy-4Z,7Z,11E,13E,15Z,19Z-docosahexaenoic acid]",ability to protect melanocytes,[2]; [6],show ability to protect melanocytes
"CC/C=C\C[C@H](O)[C@H](O)/C=C/C=C/C=C\C=C\[C@@H](O)C/C=C\CCC(=O)O [resolvin D2, 7S,16R,17S-trihydroxy-4Z,8E,10Z,12E,14E,19Z-docosahexaenoic acid]",ability to protect melanocytes,[2]; [6],show ability to protect melanocytes
"CC[C@@H](O)/C=C/C=C\C[C@@H](O)/C=C/C=C/C=C\[C@@H](O)CCCC(=O)O [resolvin E1, 5S,12R,18R-trihydroxy-6Z,8E,10E,14Z,16E-eicosapentaenoic acid]",ability to protect melanocytes,[2]; [6],show ability to protect melanocytes
mometasone fumarate [reference compound],change in the size of the white areas,[1],did not notice any change
